Patent US9199946B2, “Pyrimidinone carboxamide inhibitors of endothelial lipase” (BRISTOL-MYERS SQUIBB COMPANY, priority 2012, dated 2015)
pIC50: −log10 of the molar value.

molecular target: T1, Endothelial lipase (EL) (Homo sapiens, UniProt Q9Y5X9); experiment: Endothelial lipase (EL) enzymatic assay with fluorescent substrate A10070 in DMPG vesicles; format: biochemical; conditions: conditioned media from HT-1080 cells overexpressing endogenous EL; 20 min preincubation at 37° C.; read-out: EL IC50
T1 construct: HT-1080 cells, which were transformed by RAGE technology (Athersys) to overexpress endogenous EL; endogenous in cells; conditioned medium used as the enzyme source
T1 sequence (Q9Y5X9 21-500): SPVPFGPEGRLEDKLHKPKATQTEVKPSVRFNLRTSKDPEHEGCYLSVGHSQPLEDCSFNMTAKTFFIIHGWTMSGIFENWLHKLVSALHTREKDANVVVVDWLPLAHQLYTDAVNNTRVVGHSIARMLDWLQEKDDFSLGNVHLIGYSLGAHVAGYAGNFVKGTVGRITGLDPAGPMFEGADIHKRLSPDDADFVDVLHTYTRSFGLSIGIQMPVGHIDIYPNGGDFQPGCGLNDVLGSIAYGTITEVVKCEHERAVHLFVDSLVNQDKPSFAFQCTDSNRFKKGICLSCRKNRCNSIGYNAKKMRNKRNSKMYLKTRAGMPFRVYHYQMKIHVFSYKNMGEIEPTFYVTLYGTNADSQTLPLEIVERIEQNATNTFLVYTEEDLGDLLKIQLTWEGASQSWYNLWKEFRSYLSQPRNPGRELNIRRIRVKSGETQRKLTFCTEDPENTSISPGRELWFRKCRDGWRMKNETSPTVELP
Experimental: Endothelial lipase activity was measured using a fluorescent substrate, A10070, (Invitrogen, CA) doped into an artificial vesicle containing DMPG (Avanti Polar Lipids) as the excipient. Vesicles were prepared by combining 285 μL of 1 mM DMPG in a 1:1 mixture of MeOH and CHCl3 with 15 μL of 1 mM A10070 in a 1:1 mixture of MeOH and CHCl3. The mixture was dried under nitrogen and resuspended in 150 μL of 50 mM HEPES pH 8.0 buffer containing 100 mM NaCl and 0.2 mM EDTA. The sample was allowed to sit at rt for 15 min and then was sonicated 3×4 mins on ice with a Branson Sonicator using duty cycle 1. This preparation provides vesicles with a mole fraction of 0.05 for the FRET substrate.
The enzymatic assay was measured using white, opaque 96-well half area plates. Each well contained 60 μL of assay buffer (50 mM HEPES pH 8.0, 50 mM NaCl and 1 mM CaCl2) and 2 ul of a DMSO solution containing compound of interest. Conditioned media obtained from HT-1080 cells, which were transformed by RAGE technology (Athersys) to overexpress endogenous EL, was added and the reaction was allowed to incubate for 20 min at 37° C. with gentle agitation. The reaction was started by the addition of 20 μL of a 1:4 dilution of vesicles. The final total reaction volume was 100 μL. The reaction rates were measured on a Gemini plate reader with an excitation wavelength of 488 nm and an emission of 530 nm. Readings were taken every 20 seconds for 10 min with agitation between each reading. The slope of the linear portion of the readout was used to calculate the rate of the reaction.

pIC50 | SMILES
6.25 | CS(=O)(=O)N1CCC(NC(=O)c2[nH]c(=O)[nH]c(=O)c2N)c2ccccc21 (stereo not shown) [Example 24, 5-amino-N-(1-(methylsulfonyl)-1,2,3,4-tetrahydroquinolin-4-yl)-2,6-dioxo-1,2,3,6-tetrahydropyrimidine-4-carboxamide]
5.02 | O=C(N[C@H]1CCCc2ccccc21)c1[nH]c(=O)[nH]c(=O)c1OCCO [Example 299, (S)-5-(2-Hydroxyethoxy)-2,6-dioxo-N-(1,2,3,4-tetrahydronaphthalen-1-yl)-1,2,3,6-tetrahydropyrimidine-4-carboxamide]

same assay, conditions: range observed in the EL assay; read-out: EL IC50 values

SMILES | pIC50
Cn1nc(C(F)(F)F)cc1-c1ccc([C@H]2CC[C@@H](NC(=O)c3[nH]c(=O)[nH]c(=O)c3N)C2)cc1 [Example 173, 5-amino-N-((1R,3S)-3-(4-(1-methyl-3-(trifluoromethyl)-1H-pyrazol-5-yl)phenyl)cyclopentyl)-2,6-dioxo-1,2,3,6-tetrahydropyrimidine-4-carboxamide] | ≥ 5.00
COc1ccc2c(c1)CCCC2NC(=O)c1[nH]c(=O)[nH]c(=O)c1N (stereo not shown) [Example 31, 5-amino-N-(6-methoxy-1,2,3,4-tetrahydronaphthalen-1-yl)-2,6-dioxo-1,2,3,6-tetrahydropyrimidine-4-carboxamide] | ≥ 5.00
Nc1c(C(=O)N[C@H]2CC[C@@H](c3ccccc3)CC2)[nH]c(=O)[nH]c1=O [Example 3, 5-amino-2,6-dioxo-N-(cis-4-phenylcyclohexyl)-1,2,3,6-tetrahydropyrimidine-4-carboxamide] | ≥ 5.00
O=C(N[C@@H]1CC[C@@H](c2ccccc2)C1)c1[nH]c(=O)[nH]c(=O)c1O [Example 272, 5-hydroxy-2,6-dioxo-N-((1R,3R)-3-phenylcyclopentyl)-1,2,3,6-tetrahydropyrimidine-4-carboxamide] | ≥ 5.00
COc1ccc2c(c1)OC(C)CC2NC(=O)c1[nH]c(=O)[nH]c(=O)c1N (stereo not shown) [Example 17, 5-amino-N-(7-methoxy-2-methylchroman-4-yl)-2,6-dioxo-1,2,3,6-tetrahydropyrimidine-4-carboxamide] | ≥ 5.00
O=C(N[C@H]1CCCc2ccccc21)c1[nH]c(=O)[nH]c(=O)c1OCCO [Example 299, (S)-5-(2-Hydroxyethoxy)-2,6-dioxo-N-(1,2,3,4-tetrahydronaphthalen-1-yl)-1,2,3,6-tetrahydropyrimidine-4-carboxamide] | ≥ 5.00

Second part, the compound after the results:

pIC50 | SMILES
≥ 5.00 | Nc1c(C(=O)N[C@@H]2CC[C@H](C(=O)Nc3ccccc3)C2)[nH]c(=O)[nH]c1=O [Example 130, 5-amino-2,6-dioxo-N-((1R,3S)-3-(phenylcarbamoyl)cyclopentyl)-1,2,3,6-tetrahydropyrimidine-4-carboxamide]
≥ 5.00 | Nc1c(C(=O)N[C@H]2CC[C@@H](NC(=O)c3ccccc3)CC2)[nH]c(=O)[nH]c1=O [Example 115, 5-amino-N-(cis-4-benzamidocyclohexyl)-2,6-dioxo-1,2,3,6-tetrahydropyrimidine-4-carboxamide]
≥ 5.00 | Nc1c(C(=O)N[C@@H]2CCC(c3ccc(Cl)c(Cl)c3)c3ccccc32)[nH]c(=O)[nH]c1=O (single isomer, unassigned) [Example 37]
≥ 5.00 | Nc1c(C(=O)N[C@@H]2CCc3ccc(C(F)(F)F)cc32)[nH]c(=O)[nH]c1=O [Example 1, (R)-5-Amino-2,6-dioxo-N-(6-(trifluoromethyl)-2,3-dihydro-1H-inden-1-yl)-1,2,3,6-tetrahydropyrimidine-4-carboxamide]
≥ 5.00 | O=C(N[C@@H]1CCCc2ccccc21)c1[nH]c(=O)[nH]c(=O)c1O [Example 276, (R)-5-hydroxy-2,6-dioxo-N-(1,2,3,4-tetrahydronaphthalen-1-yl)-1,2,3,6-tetrahydropyrimidine-4-carboxamide]
≥ 5.00 | CCNc1c(C(=O)N[C@H]2CC[C@@H](c3ccccc3)CC2)[nH]c(=O)[nH]c1=O [Example 229, 5-(ethylamino)-2,6-dioxo-N-(cis-4-phenylcyclohexyl)-1,2,3,6-tetrahydropyrimidine-4-carboxamide]
≥ 5.00 | CC(C)Cn1cc(-c2ccc([C@@H]3CC[C@H](NC(=O)c4[nH]c(=O)[nH]c(=O)c4N)C3)cc2)cn1 [Example 172, 5-amino-N-((1S,3R)-3-(4-(1-isobutyl-1H-pyrazol-4-yl)phenyl)cyclopentyl)-2,6-dioxo-1,2,3,6-tetrahydropyrimidine-4-carboxamide]
≥ 5.00 | CS(=O)(=O)N1CCC(NC(=O)c2[nH]c(=O)[nH]c(=O)c2N)c2ccccc21 (stereo not shown) [Example 24, 5-amino-N-(1-(methylsulfonyl)-1,2,3,4-tetrahydroquinolin-4-yl)-2,6-dioxo-1,2,3,6-tetrahydropyrimidine-4-carboxamide]
